smiles,measurement,value
"C[C@@H](Nc1ncnc2oc(-c3cccc(N)c3)cc12)c1ccccc1 [Example 13, 4-(1R-phenylethylamino)-6-(3-aminophenyl)furo[2,3-d]pyrimidine]",melting point,64 to 84 °C
